In patent US6916843B1, “Anti-inflammatory actions of cytochrome P450 expoxygenase-derived eicosanoids” (The United States of America as represented by the …, priority 1999, dated 2005):
Entries after “also recorded” stand apart in the source; their conditions may differ. One block for each compound: values may come before it. Ends that are not written are not given here.

How the values were obtained:
[1] = system: bovine aortic endothelial cells (BAECs); assay: Hypoxia-reoxygenation-induced cell injury in BAECs (cell number, LDH release, trypan blue); assay type: cell-based; settings: for hypoxia-reoxygenation-induced cell injury, epoxide hydrolase inhibitors: DCU 10 μmol/L and elaidamide 10 μmol/L added together prior to hypoxia
Experimental: Effects of P450-derived arachidonic acid metabolites on hypoxia-reoxygenalion-induced injury in BAECs. BAECs, either untransfected, or 48 hours after transfection with pcDNA3.1/GFP or pcDNA3.1/CYP2J2, or 10 min after treatment with eicosanoids, epoxide hydrolase inhibitors or vehicle, were exposed to hypoxia (95% nitrogen plus 5% carbon dioxide) for 24 hours, followed by reoxygenation (95% air plus 5% carbon dioxide) for 4 hours using an environmental chamber within a 37° C. incubator. Cells maintained under continuous (28 hours) normoxic conditions served as controls.
EETs were prepared by total chemical synthesis as previously described (Corey el al., 102 J. Am. Chem. Soc. 1433-1435 (1980), Falck et al., 23 Tetrahedron Lett. 1755-1756 (1982)). DHETs were prepared by chemical hydration of EETs as described by Capdevila et al., 187 Methods Enzymol. 386-394 (1990). Synthetic EETs and DHETs were purified by reverse-phase HPLC prior to use. BAECs, grown to ˜85% confluency, were treated with either synthetic [11,12]-EET, [11,12]-DHET, or [14,15]-EET in ethanol vehicle (1 μmol/L each, final concentration) for 10 min prior to exposure to hypoxia-reoxygenation. […] Cells treated with vehicle alone served as controls.
After hypoxia-reoxygenation, the cell number was determined using a hemocytometer and the degree of cell injury was assessed by measuring lactate dehydrogenase release into the culture medium using the CytoTox 96 Non-Radioactive Cytotoxicity Assay Kit (Promega, Madison, Wis.) and by counting the number of trypan blue dye stained cells. Data are expressed as a percentage of values obtained from control cells maintained under normoxic conditions.

NF-κB = NF-κB heterologous promoter (pκB.Luc) luciferase reporter in bovine endothelial cells; assay type: cell-based; settings: 100 μM
Experimental: (§1) FIG. 2 is a set of bar graphs of cell-surface enzyme immunoassays. […] The difference between treatment with TNF-α alone and in the presence of [11,12]-EET were statistically significant (*p<0.05, **p<0.01), OD, optical density. […] After stimulation with TNF-α (10 ng/ml) in the presence or absence of EET, promoter activity was determined relative to basal activity. *p<0.01 vs. TNF-α alone.
(§2) To localize cis-acting elements in the VCAM-1 promoter that might mediate the inhibitory effects of [11,12]-EET, we transiently transfected bovine aortic endothelial cells with a −755 bp VCAM-1 promoter construct (DeCaterina et al., 96 J. Clin. Invest. 60 (1995)). Stimulation with TNF-α induced a 13-fold increase in relative VCAM-1 promoter activity that was abolished by cotreatment with [11,12]-EET. […] To confirm that the tandem κB sites in the VCAM-1 promoter are repressed by [11,12]-EET we subcloned them into a heterologous promoter construct containing the SV40 enhancer linked to the luciferase reporter gene (pκB.Luc). Stimulation of transfected endothelial cells with TNF-α induced a 6-fold increase in pκB.Luc promoter activity that was abolished by co-treatment with [11,12]-EET, but not [14,15]-EET (FIG. 2C). […] Compared to transfection with the empty pcDNA3.1 vector, overexpression of CYP2J2 decreased TNF-induced VCAM-1 and pκB.Luc promoter activity by 70-80% which were reversed in the presence of SKF525A (FIG. 2C). Neither transfection with CYP2J2 cDNA alone nor treatment with SKF525A alone affected basal promoter activity.

VCAM-1 promoter = VCAM-1 promoter construct activity in transiently transfected bovine aortic endothelial cells; assay type: cell-based; settings: 100 μM
Text: as §2, with “-755” for “−755”, “SK[…]” for “SKF525A”

CYP2J2 = molecular target: T1, CYP2J2 (Homo sapiens, UniProt P51589); assay: Arachidonic acid epoxygenase metabolite formation in CYP2J2-transfected bovine aortic endothelial cells (HPLC)
T1 construct: The CYP2J2 cDNA (1.9 kb) or GFP cDNA (0.75 kb) were subcloned into the plasmid pcDNA3.1; expressed in transfected cells; host or cells: bovine aortic endothelial cells (BAECs), transient transfection with pcDNA3.1/CYP2J2
T1 sequence (P51589 1-502): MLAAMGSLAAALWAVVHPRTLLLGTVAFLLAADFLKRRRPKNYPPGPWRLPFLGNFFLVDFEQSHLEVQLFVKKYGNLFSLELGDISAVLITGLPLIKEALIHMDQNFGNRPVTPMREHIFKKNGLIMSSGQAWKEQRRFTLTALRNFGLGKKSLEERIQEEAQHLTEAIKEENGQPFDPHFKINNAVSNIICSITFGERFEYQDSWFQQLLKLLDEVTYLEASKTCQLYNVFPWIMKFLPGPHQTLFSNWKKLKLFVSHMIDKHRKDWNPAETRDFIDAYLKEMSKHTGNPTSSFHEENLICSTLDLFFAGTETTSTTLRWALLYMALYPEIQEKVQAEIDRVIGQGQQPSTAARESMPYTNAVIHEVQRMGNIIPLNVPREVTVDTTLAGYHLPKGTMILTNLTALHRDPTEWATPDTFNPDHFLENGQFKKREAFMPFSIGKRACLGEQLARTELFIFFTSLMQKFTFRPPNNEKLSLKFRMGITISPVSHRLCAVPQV
Experimental: To study the formation of EETs by CYP2J2 in endothelial cells, we measured EET synthesis from bovine endothelial cells transfected with CYP2J2 cDNA. Early passage bovine aortic endothelial cells were grown to 60-70% confluence and transfected with either pcDNA3.1 or pcDNA3.1/CYP2J2 using Fugene™ 6 reagent (Boehringer Mannheim Corp.) according to the manufacturer's instructions. Using this method, the transfection efficiency was 10-20%. Forty-eight hours post-transfection, cells were washed twice with phosphate-buffered saline and incubated with freshly purified [^3H]arachidonic acid (185 Ci/mmol, 4-5 μCi/175 mm^2 flask) and unlabeled arachidonic acid (10 μM) was added before addition of arachidonic acid. At various time points, the media and cells were removed and extracted with diethyl ether. The combined organic phases were dried under a nitrogen stream, resolved by reverse-phase high performance liquid chromatography (HPLC) and quantified by liquid scintillation as described by Wu et al., 271 J. Biol. Chem. 3460 (1996). […]
These control GFP-transfected cells metabolized radiolabeled arachidonic acid to epoxygenase metabolites (EETs and DHETs) at a rate of ˜8 pmol/min/10^7 cells (FIG. 6). Endothelial cell arachidonic acid metabolism was determined as follows: Forty-eight hours after transfection with either pcDNA3.1/GFP or pcDNA3.1/CYP2J2, BAECs were incubated with freshly purified [5, 6, 8, 9, 11, 12, 14, 15-^3H]arachidonic acid (185 Ci/mmol, 4-5 μCi/175-mm^2 flask) in serurm-free culture medium at 37° C. for 30-120 min. […] The BAECs and culture medium were then collected and the reaction products extracted into ethyl ether, dried under a nitrogen stream, analyzed by reverse-phase HPLC, and quantified by on-line liquid scintillation using a Radiomatic Flo-One β detector (Radiomatic Instruments, Tampa, Fla.) as described (Wu et al., 271 J. Biol. Chem. 12551 (1996), Node et al., 285 Science 1276-1279 (1999)). […]

IκB kinase (IKK) = assay: IKK activity assay with GST-IκB-α substrate, TNF-α-stimulated endothelial cells; assay type: biochemical, human; settings: 100 nM, TNF-α 10 ng/ml, 15 min
Experimental: A set of gel shift assays was performed. […] In some assays, [11,12]-EET (100 nM) was also added directly to the IKK assay (in vitro). As a control for nonspecific phosphorylation, the assay was performed without the addition of immunoprecipitated IKK (no enzyme) or in the presence of a IκB-α mutant (ΔSer 32, Ser 36→Thr) as substrate. The assay was performed three times with similar results.
Specificity of IKB was determined by the complete absence of phosphorylation when the mutated IκB-α substrate, GST-1κB-α (Δ32,36: S→T) which cannot be phosphorylated at serine residues 32 and 36, was substituted for wild-type GST-IκB-α.

VCAM-1 expression = assay: Cell-surface enzyme immunoassay of cytokine-induced VCAM-1 expression in endothelial cells; assay type: cell-based, human; settings: KCa channel blocker 100 nM
Experimental: as §1
To determine the biological effects of EETs, we treated tumor necrosis factor alpha (TNF-α)-stimulated human endothelial cells with physiological relevant concentrations (1-100 nM) of [5,6]-EET, [8,9]-EET, [11,12]-EET, [14,15]-EET, [11,12]-DHET.

Compound: O=C(NC1CCCCC1)NC1CCCCC1 [DCU, dicyclohexylurea, reference compound]
- hypoxia-reoxygenation-induced cell injury, epoxide hydrolase inhibitors [1]: significantly attenuates
- hypoxia-reoxygenation-induced cell injury, epoxide hydrolase inhibitors ([1]; listed as dicyclohexylurea): limits

- reversal of CYP2J2-mediated decrease of pκB.Luc promoter activity (NF-κB): reversed
- reversal of CYP2J2-mediated decrease of VCAM-1 promoter activity (VCAM-1 promoter): reversed
- inhibition of increased epoxygenase activity of CYP2J2-transfected BAECs (CYP2J2; 100 μmol/L): inhibited
- inhibition of formation of epoxygenase metabolites by CYP2J2 transfected cells (CYP2J2; inhibitor 100 μM): > 80%
Compound: CCCC(C(=O)OCCN(CC)CC)(c1ccccc1)c1ccccc1 [SKF525A, reference compound]

Compound: CCCCC/C=C\C/C=C\C/C=C\CC1OC1CCCC(=O)O (stereo not drawn) [[5,6]-EET]
- inhibition of TNF-α-induced IKK activity (IκB kinase (IKK)): to a lesser extent

Compound: CCCCC/C=C\C/C=C\CC1OC1C/C=C\CCCC(=O)O (stereo not drawn) [[8,9]-EET]
- inhibition of TNF-α-induced IKK activity (IκB kinase (IKK)): to a lesser extent

Compound: CCCCC/C=C\CC(O)C(O)C/C=C\C/C=C\CCCC(=O)O (stereo not drawn) [[11,12]-DHET]
- hypoxia-reoxygenation-induced cell injury, number of trypan blue stained cells ([1]; 1 μmol/L, added 10 min prior to hypoxia (24 h hypoxia, 4 h reoxygenation)): active in attenuating; also recorded: significantly attenuates

Compound: CCCCCCCC/C=C/CCCCCCCC(N)=O [elaidamide, reference compound]
- hypoxia-reoxygenation-induced cell injury, epoxide hydrolase inhibitors [1]: limits; also recorded: significantly attenuates

Compound: charybodotoxin [reference compound]
- block of the inhibitory effect of [11,12]-EET on TNF-α-induced VCAM-1 expression (VCAM-1 expression): did not block

Compound: iberiotoxin (QFTDVDCSVSKECWSVCKDLFGVDRGKCMGKKCRCYQ; not fully specified (residue 1, bridges); cysteine pairing not given here; UniProt P24663 1-37, looked up) [reference compound]
- block of the inhibitory effect of [11,12]-EET on TNF-α-induced VCAM-1 expression (VCAM-1 expression): did not block
